# Structures can show the parent of a compound that is named as a salt.
# Experiments:
# [1] = test system: NB4 cell line; assay: WST-1 viability assay, fatty acids dissolved in DMSO; type: cell-based; settings: 48 hours
# Protocol: NB4 cells at a concentration of 0.1×10^5 cells/mL were incubated with 37.5, 75, 150 and 300 μM of TTA, 2-tr-TTA and PA dissolved in DMSO for 48 hours. Cell viability was assessed with WST-1 assay after 4 hours of incubation, and the absorption was related to the DMSO-control. Cell viability is presented as percentage of DMSO-control (100%). The assay was performed with triplicates for each concentration of the individual SBFA and the result is presented as mean of the triplicates±SD, n=1.
# (§1) As a preliminary test, NB4 was exposed to TTA, 2-tr-TTA and PA dissolved in DMSO in concentrations between 37.5 to 300 μM for 48 hours. […] It was decided to not try higher concentrations of TTA PA and 2-tr-TTA dissolved in DMSO because of DMSO's cellular toxicity. In this project, one aim was to compare TTA with N-TTA and 2-tr-N-TTA. […] Compared to DMSO-control there was no significant decrease in cell viability after treatment with B SFAs dissolved in DMSO (p>0.05).
# [2] = Solubility in solvents; type: physicochemical
# Protocol: Hydrogenated egg phosphatidylcholine (HEPC), cholesterol (CHO) and fatty acid compound (PA, N-TTA and TTA) were weighed out separately and dissolved in chloroform. N-TTA is not soluble in chloroform alone and was therefore dissolved in a 1:1 mixture of methanol and chloroform. The dissolved lipids were mixed in a molar ratio of 1.81 HEPC:1CHO and 0.5-2 PA/N-TTA/TTA in a 100 or 250 mL Duran round bottom flasks. Next, a thin lipid film was made by slowly evaporating the solvents by using Laborota 4000 rotary evaporator at light vacuum, 200 mbar, and 60 rpm for 1.5-2.5 hours depending on the volume of solvents. To ensure a solvent-free lipid film, full vacuum (0 mbar) was applied the last 30 minutes.
# as §1
Structure (SMILES),"cell viability (percentage of DMSO-control), WST-1 ([1]; NB4, 37.5-300 μM dissolved in DMSO, n=1, p>0.05)","metabolic activity (WST-1), trend as presented in FIG. 1 ([1]; NB4, 37.5-300 μM in DMSO, stimulating effect especially at 75 μM)",solubility in DMSO [2],"solubility in chloroform ([2]; chloroform alone, dissolved in 1:1 methanol and chloroform)"
"CC#CCCCCCCCCCCCSCC(=O)O [2-tr-TTA, 2-(Tetradec-12-yn-1-ylthio)acetic acid]",lack of significant antiproliferative effect,stimulating effect,,
"CC#CCCCCCCCCCCCNCC(=O)O [2-trN-TTA, Tetradec-12-yn-1-ylglycine hydrochloride]",,,seemingly insoluble,
"CCCCCCCCCCCCCCNCC(=O)O [N-TTA, N-tetradecylglycine]",,,seemingly insoluble,not soluble
